{
  "source": "paper PMC7473772",
  "about": "(eLife, 2020)",
  "type_in_all_cases": "cell-based, Trypanosoma brucei brucei",
  "key": {"tbaqp2/tbaqp3 null cells": {"tested_on": "tbaqp2/tbaqp3 null cells", "assay": "microbe, parasite or virus in culture"}, "[1]": {"tested_on": "tbaqp2/tbaqp3 null cells expressing TbAQP2WT", "assay": "microbe, parasite or virus in culture"}, "[2]": {"tested_on": "tbaqp2/tbaqp3 null cells expressing TbAQP2^S131P/S263A"}, "[3]": {"tested_on": "tbaqp2/tbaqp3 null cells expressing TbAQP2^L258Y"}, "[4]": {"tested_on": "tbaqp2/tbaqp3 null cells expressing TbAQP2^I110W"}, "[5]": {"tested_on": "tbaqp2/tbaqp3 null cells expressing TbAQP2^L264R"}, "[6]": {"tested_on": "tbaqp2/tbaqp3 null cells expressing TbAQP2^I190T"}, "[7]": {"tested_on": "tbaqp2/tbaqp3 null cells expressing TbAQP2^W192G"}, "[8]": {"tested_on": "tbaqp2/tbaqp3 null cells expressing TbAQP2^I190T/W192G"}, "[9]": {"tested_on": "tbaqp2/tbaqp3 null cells expressing TbAQP2 L84W", "assay": "microbe, parasite or virus in culture"}, "[10]": {"tested_on": "tbaqp2/tbaqp3 null cells expressing TbAQP2 L118W", "assay": "microbe, parasite or virus in culture"}, "[11]": {"tested_on": "tbaqp2/tbaqp3 null cells expressing TbAQP2 L218W", "assay": "microbe, parasite or virus in culture"}, "[12]": {"tested_on": "tbaqp2/tbaqp3 null cells expressing TbAQP2 L84M", "assay": "microbe, parasite or virus in culture"}, "[13]": {"tested_on": "tbaqp2/tbaqp3 null cells expressing TbAQP2 L118M", "assay": "microbe, parasite or virus in culture"}, "[14]": {"tested_on": "tbaqp2/tbaqp3 null cells expressing TbAQP2 L218M", "assay": "microbe, parasite or virus in culture"}, "[15]": {"tested_on": "tbaqp2/tbaqp3 null cells expressing TbAQP3"}, "[16]": {"tested_on": "tbaqp2/tbaqp3 null cells expressing TbAQP3^W102I/R256L"}, "[17]": {"tested_on": "tbaqp2/tbaqp3 null cells expressing TbAQP3^W102I/R256L/Y250L"}},
  "note": "“And” between values parts separate entries of the source, which are not always exact repeats. Equal values may be shown once. Read-outs that look alike come from different tables or passages of the source.",
  "data": [
    {"molecule": "Cl.Cl.NCCS[As](SCCN)c1ccc(Nc2nc(N)nc(N)n2)cc1", "note": "[Cymelarsan]", "values": [
      {"measurement": "EC50 (% of aqp2/aqp3 null), MEAN", "setting": "tbaqp2/tbaqp3 null cells", "value": "100.00 % of aqp2/aqp3 null"},
      {"measurement": "EC50 (% of aqp2/aqp3 null), single repeats", "setting": "tbaqp2/tbaqp3 null cells", "value": "100.09 % of aqp2/aqp3 null and 107.11 % of aqp2/aqp3 null and 92.80 % of aqp2/aqp3 null and 105.96 % of aqp2/aqp3 null and 97.29 % of aqp2/aqp3 null and 96.75 % of aqp2/aqp3 null and 92.36 % of aqp2/aqp3 null and 100.54 % of aqp2/aqp3 null"},
      {"measurement": "EC50, MEAN (% KO)", "setting": "tbaqp2/tbaqp3 null cells", "value": 100.00, "unit": "% KO"},
      {"measurement": "EC50, percent of AQP2/3 null EC50", "setting": "tbaqp2/tbaqp3 null cells", "value": 100.00, "unit": "%"},
      {"measurement": "EC50 as percent of AQP2/3 null EC50, MEAN", "setting": "tbaqp2/tbaqp3 null cells", "value": 100.00, "unit": "%"},
      {"measurement": "EC50 as percent of AQP2/3 null EC50, single repeats", "setting": "tbaqp2/tbaqp3 null cells", "value": 100.0, "unit": "%"},
      {"measurement": "EC50", "setting": "tbaqp2/tbaqp3 null cells; read-out: EC50, MEAN", "value": 19.9, "unit": "nM"},
      {"measurement": "EC50 (% of aqp2/aqp3 null), MEAN", "setting": "[1]", "value": "14.85 % of aqp2/aqp3 null"},
      {"measurement": "EC50, MEAN (% KO)", "setting": "[1]", "value": 21.40, "unit": "% KO"},
      {"measurement": "EC50, percent of AQP2/3 null EC50", "setting": "[1]", "value": "11.82% and 12.84% and 17.72% and 13.38%"},
      {"measurement": "EC50 as percent of AQP2/3 null EC50, MEAN", "setting": "[1]", "value": "12.527% and 12.55%"},
      {"measurement": "EC50, percent of AQP2/3 null EC50", "setting": "[2]", "value": 58.29, "unit": "%"},
      {"measurement": "EC50, percent of AQP2/3 null EC50", "setting": "[3]", "value": 33.16, "unit": "%"},
      {"measurement": "EC50, percent of AQP2/3 null EC50", "setting": "[4]", "value": 106.64, "unit": "%"},
      {"measurement": "EC50, percent of AQP2/3 null EC50", "setting": "[5]", "value": 99.62, "unit": "%"},
      {"measurement": "EC50 as percent of AQP2/3 null EC50, MEAN", "setting": "[6]", "value": 64.67, "unit": "%"},
      {"measurement": "EC50 as percent of AQP2/3 null EC50, MEAN", "setting": "[7]", "value": 42.01, "unit": "%"},
      {"measurement": "EC50 as percent of AQP2/3 null EC50, single repeats", "setting": "[7]", "value": "38.89% and 33.6754% and 48.5349% and 30.3438% and 47.7536% and 38.5508% and 45.4365% and 52.8716%"},
      {"measurement": "EC50 as percent of AQP2/3 null EC50, MEAN", "setting": "[8]", "value": 95.01, "unit": "%"},
      {"measurement": "EC50 as percent of AQP2/3 null EC50, single repeats", "setting": "[8]", "value": "84.5691% and 96.0784% and 104.69% and 94.6857%"},
      {"measurement": "EC50 (% of aqp2/aqp3 null), MEAN", "setting": "[9]", "value": "100.47 % of aqp2/aqp3 null"},
      {"measurement": "EC50 (% of aqp2/aqp3 null), single repeats", "setting": "[9]", "value": "103.60 % of aqp2/aqp3 null and 103.34 % of aqp2/aqp3 null and 94.46 % of aqp2/aqp3 null"},
      {"measurement": "EC50", "setting": "[9]; read-out: EC50, MEAN", "value": 20, "unit": "nM"},
      {"measurement": "EC50", "setting": "[9]; read-out: EC50, single repeats", "value": "20.6 nM (2×) and 18.8 nM"},
      {"measurement": "EC50 (% of aqp2/aqp3 null), MEAN", "setting": "[10]", "value": "92.14 % of aqp2/aqp3 null"},
      {"measurement": "EC50 (% of aqp2/aqp3 null), single repeats", "setting": "[10]", "value": "88.70 % of aqp2/aqp3 null and 124.82 % of aqp2/aqp3 null and 62.91 % of aqp2/aqp3 null"},
      {"measurement": "EC50", "setting": "[10]; read-out: EC50, MEAN", "value": 18.4, "unit": "nM"},
      {"measurement": "EC50", "setting": "[10]; read-out: EC50, single repeats", "value": "17.7 nM and 24.9 nM and 12.5 nM"},
      {"measurement": "EC50 (% of aqp2/aqp3 null), MEAN", "setting": "[11]", "value": "94.01 % of aqp2/aqp3 null"},
      {"measurement": "EC50 (% of aqp2/aqp3 null), single repeats", "setting": "[11]", "value": "100.13 % of aqp2/aqp3 null and 113.78 % of aqp2/aqp3 null and 68.13 % of aqp2/aqp3 null"},
      {"measurement": "EC50", "setting": "[11]; read-out: EC50, MEAN", "value": 18.7, "unit": "nM"},
      {"measurement": "EC50", "setting": "[11]; read-out: EC50, single repeats", "value": "20 nM and 22.7 nM and 13.6 nM"},
      {"measurement": "EC50, MEAN (% KO)", "setting": "[12]", "value": 62.94, "unit": "% KO"},
      {"measurement": "EC50", "setting": "[12]; read-out: EC50, MEAN", "value": 13.9, "unit": "nM"},
      {"measurement": "EC50", "setting": "[12]; read-out: EC50, single repeats", "value": "14.7 nM and 14.5 nM and 12.4 nM and 13.7 nM and 10.5 nM and 17.1 nM"},
      {"measurement": "EC50 (% of aqp2/aqp3 null), single repeats", "setting": "[13]", "value": "106.00 % of aqp2/aqp3 null and 109.38 % of aqp2/aqp3 null and 101.17 % of aqp2/aqp3 null and 149.03 % of aqp2/aqp3 null and 147.52 % of aqp2/aqp3 null"},
      {"measurement": "EC50, MEAN (% KO)", "setting": "[13]", "value": 122.62, "unit": "% KO"},
      {"measurement": "EC50", "setting": "[13]; read-out: EC50, MEAN", "value": 34.3, "unit": "nM"},
      {"measurement": "EC50", "setting": "[13]; read-out: EC50, single repeats", "value": "34.5 nM and 35.6 nM and 32.9 nM and 24.6 nM and 24.4 nM"},
      {"measurement": "EC50, MEAN (% KO)", "setting": "[14]", "value": 58.15, "unit": "% KO"},
      {"measurement": "EC50", "setting": "[14]; read-out: EC50, MEAN", "value": 11.2, "unit": "nM"},
      {"measurement": "EC50", "setting": "[14]; read-out: EC50, single repeats", "value": "11.4 nM and 11.3 nM and 10.9 nM and 12.3 nM and 12.4 nM and 15.8 nM"},
      {"measurement": "EC50, percent of AQP2/3 null EC50", "setting": "[15]", "value": "114 ± 5", "unit": "%"},
      {"measurement": "EC50, percent of AQP2/3 null EC50", "setting": "[16]", "value": "105 ± 8", "unit": "%"},
      {"measurement": "EC50, percent of AQP2/3 null EC50", "setting": "[17]", "value": "159 ± 8", "unit": "%"}
    ]}
  ]
}
